Here are results for six compounds from patent US5674876A, “.rho.-heteroatom-substituted phenols and uses thereof” (Research Development Foundation, priority 1995, dated 1997).

Common to all, as to assay type: cell-based
Holding throughout (parameters): key to Inhibition (%) of DNA synthesis: TOXIC (viability): TOXIC: the compound at this concentration killed the cells or greatly lowered their viability

In series [1] the test system is MDA MB 435 (Metastic Human Breast Cancer Cell Line). Description: Inhibition of DNA synthesis (3H-TdR uptake) / proliferation, MB-435. The settings on record: for inhibition at 0.1 µg/mL / inhibition at 1 µg/mL / inhibition at 5 µg/mL / inhibition at 10 µg/mL / inhibition at 20 µg/mL: Homo sapiens, MDA-MB-435; for inhibition at 0.1 µg/mL: MB-435, 0.1 μg/mL; for inhibition at 0.1 µg/mL / inhibition at 1 µg/mL / inhibition at 5 µg/mL / Inhibition (%) of DNA synthesis: TOXIC (viability) / inhibition at 10 µg/mL / inhibition at 20 µg/mL: 48 h; for inhibition at 1 µg/mL: MB-435, 1 μg/mL. How it is done: (§1) Cells were cultured in the following media: 1) MDA MB 435 cells were cultured in Minimum Essential Media (MEM-HyClone, Logan, Utah) supplemented with 5% heat inactivated fetal bovine serum (HyClone), 2 mM glutamine (Sigma, St. Louis, Mo.), 1 mM sodium pyruvate (Sigma), 1X MEM Non-Essential Amino Acids (Sigma), 2X MEM Vitamins (Sigma), and 100 IU/mL penicillin/100 μg/mL streptomycin (HyClone); 2) MCF-7 McGuire cells were cultured in Minimum Essential Media (MEM-HyClone, Logan, Utah) supplemented with 5% heat inactivated fetal bovine serum (HyClone), 2 mM glutamine (Sigma, St. Louis, Mo.), and 100 IU/mL penicillin/100 μg/mL streptomycin (HyClone); 3) HL-60 cells were cultured in Iscoves Modified Dulbecco's Media (IMDM-HyClone, Logan, Utah) supplemented with 5% heat inactivated fetal bovine serum (HyClone), 2 mM glutamine (Sigma, St. Louis, Mo.), 1 mM sodium pyruvate (Sigma), 1X MEM Non-Essential Amino Acids (Sigma), 2X MEM Vitamins (Sigma), and 100 IU/mL penicillin/100 μg/mL streptomycin (HyClone); 2) MCF-7 McGuire cells were cultured in Minimum Essential Media (MEM-HyClone, Logan, Utah) supplemented with 5% heat inactivated fetal bovine serum (HyClone), 2 mM glutamine (Sigma, St. Louis, Mo.), and 100 IU/mL penicillin/100 μg/mL streptomycin (HyClone); 3) HL-60 cells were cultured in Iscoves Modified Dulbecco's Media (IMDM-HyClone, Logan, Utah) supplemented with 5% heat inactivated fetal bovine serum (HyClone), 2 mM glutamine (Sigma, St. Louis, Mo.), and 100 IU/mL penicillin/100 μg/mL streptomycin (HyClone).
(§2) All compounds were handled as if they were light sensitive. All compounds were initially dissolved in absolute ethanol and subsequently diluted to a final concentration of 0.5% ethanol with the appropriate medium.
(§3) For the bioassay, all cells were used at 2.5×10^5 /mL. Cells were treated with each of the compounds at concentrations of 20, 10, 5, 1, 0.1, and 0.01 μg/mL , and 200 μl of each treatment group were plated in quadruplicate in a 96 well culture plate (Corning, Corning N.Y.). Plates were done in duplicate, one plate to be used for viability testing and the other plate to examine ^3 H-TdR uptake (DNA synthesis).
(§4) Plates were cultured for 48 hours at 37° C., 5% CO2. Eight hours prior to the end of incubation, ^3 H-TdR was added to one of the duplicate plates and incubation continued for 8 hours. The cells were then harvested (trypsinization was required to harvest MDA MB 435 and MCF-7 McGuire). At the end of the incubation, the cells were removed from the wells (of the duplicate plate--no radioisotope added) and viability checked by the Trypan Blue Exclusion method. Percent viability and percent suppression of each treatment group were calculated.
(§5) With respect to the data shown in the Tables below, the data is arranged from greatest percent inhibition of DNA synthesis to lowest. […] "NT" refers to "Not Tested". The cells were cultured for 48 hours, pulsed 8 hours with tritiated thymidine, harvested and counted. MDA MB 435 is the abbreviation for the Metastic Human Breast Cancer Cell Line. MCF-7 McGuire is the abbreviation for the Estrogen Responsive Human Breast Cancer Cell Line and HL-60 is the Human Promyelocytic Leukemia Cell Line.

Series [2] has as its system HL-60 (Human Promyelocytic Leukemia Cell Line). Description: Inhibition of DNA synthesis (3H-TdR uptake) / proliferation, HL-60. The settings on record: for effect on HL-60 cells (in words): HL-60, no dose stated; for inhibition at 0.1 µg/mL / inhibition at 1 µg/mL / inhibition at 5 µg/mL / inhibition at 10 µg/mL / inhibition at 20 µg/mL: Homo sapiens; for inhibition at 0.1 µg/mL: HL-60, 0.1 μg/mL; for inhibition at 1 µg/mL: HL-60, 1 μg/mL; for inhibition at 5 µg/mL: HL-60, 5 μg/mL. How it is done: as §1, §2, §3, §4, §5

The test system of series [3] is MCF-7 McGuire (Estrogen Responsive Human Breast Cancer Cell Line). Description: Inhibition of DNA synthesis (3H-TdR uptake) / proliferation, MCF-7. The note with it: for inhibition at 0.1 µg/mL / inhibition at 1 µg/mL / inhibition at 5 µg/mL / inhibition at 10 µg/mL / inhibition at 20 µg/mL: Homo sapiens, MCF7; for inhibition at 0.1 µg/mL: MCF-7, 0.1 μg/mL; for inhibition at 1 µg/mL: MCF-7, 1 μg/mL. How it is done: as §1, §2, §3, §4, §5

In the case of `CC(=O)Oc1c(C)c2c3c(c1C)CCCN3CCC2` [Compound 6, 9-Acetoxy-8,10-dimethyljulolidine], the inhibition at 0.1 µg/mL in series [1] came out at 3%; in series [2] (48 h), 3%; in series [3] (48 h), 0%. Besides, the inhibition at 1 µg/mL amounted to 0% in series [1], 24% in series [2] (48 h) and 10% in series [3] (48 h). Also, the inhibition at 5 µg/mL came to 80% in series [1] (MB-435, 5 μg/mL); 59% in series [2] (48 h); 13% in series [3] (MCF-7, 5 μg/mL, 48 h). In addition, the “inhibition of proliferation (in words)” value in series [1] (MB-435, 5 μg/mL) is given as “significantly inhibited the proliferation”; in series [1] (MB-435, 10-20 μg/mL), “significantly inhibited the proliferation”; in series [2] (HL-60, 10 μg/mL), “significantly inhibited the proliferation”; in series [3] (MCF-7, 10 μg/mL), “significantly inhibited the proliferation”; in series [3] (MCF-7, 10-20 μg/mL) it was “significantly inhibited the proliferation”. The “Inhibition (%) of DNA synthesis: TOXIC (viability)” value in series [1] (MB-435, 10 μg/mL) is recorded as “TOXIC”; in series [1] (MB-435, 20 μg/mL), “TOXIC”; in series [2] (HL-60, 20 μg/mL, 48 h), “TOXIC”; in series [3] (MCF-7, 20 μg/mL, 48 h) it was “TOXIC”. Besides, in series [2], the “effect on HL-60 cells (in words)” value is listed as “virtually no effect”. Also, the inhibition at 10 µg/mL was 89% in series [2] (HL-60, 10 μg/mL, 48 h) and 37% in series [3] (MCF-7, 10 μg/mL, 48 h).
With `Cc1cc2c(c(C)c1O)C(C)CN2C(=O)C(C)C` (stereo not drawn) [Compound 11b, N-Isobutyryl-5-hydroxy-3,4,6-trimethylindoline], the inhibition at 0.1 µg/mL in series [1] is 0%; in series [2] (48 h), 0%; in series [3] (48 h), 24%. Also, the inhibition at 1 µg/mL in series [1] was 21%; in series [2] (48 h), 0%; in series [3] (48 h) it was 26%. Also, the inhibition at 5 µg/mL in series [1] (MB-435, 5 μg/mL) came out at 21%; in series [2] (48 h) it was 0%; in series [3] (MCF-7, 5 μg/mL, 48 h), 47%. Besides, the inhibition at 10 µg/mL was 22% in series [1] (MB-435, 10 μg/mL); 0% in series [2] (HL-60, 10 μg/mL, 48 h); 33% in series [3] (MCF-7, 10 μg/mL, 48 h). Moreover, the inhibition at 20 µg/mL in series [1] (MB-435, 20 μg/mL) is 36%; in series [2] (HL-60, 20 μg/mL, 48 h), 0%; in series [3] (MCF-7, 20 μg/mL, 48 h) it was 53%. Further, the “inhibition of proliferation (in words)” value is “significantly inhibited the proliferation” in series [1] (MB-435, 10 μg/mL) and “significantly inhibited the proliferation” in series [3] (MCF-7, 5 μg/mL). Also, in series [2], the “effect on HL-60 cells (in words)” value was “virtually no effect”.
Consider `Cc1cc2c(c(C)c1O)C(C)CN2C(=O)C(C)(C)C` (stereo not drawn) [Compound 11c, N-Pivaloyl-5-hydroxy-3,4,6-trimethylindoline], for which the results for the inhibition at 0.1 µg/mL in series [1], in series [2] (48 h) and in series [3] (48 h) were 13%, 0% and 18%, respectively. Moreover, the results for the inhibition at 1 µg/mL in series [1], in series [2] (48 h) and in series [3] (48 h) were 12%, 0% and 1%, respectively. Also, the inhibition at 5 µg/mL in series [1] (MB-435, 5 μg/mL) was 20%; in series [2] (48 h), 0%; in series [3] (MCF-7, 5 μg/mL, 48 h), 9%. The inhibition at 10 µg/mL in series [1] (MB-435, 10 μg/mL) is 12%; in series [2] (HL-60, 10 μg/mL, 48 h), 0%; in series [3] (MCF-7, 10 μg/mL, 48 h) it was 31%. Also, the inhibition at 20 µg/mL in series [1] (MB-435, 20 μg/mL) stood at 31%; in series [2] (HL-60, 20 μg/mL, 48 h), 0%; in series [3] (MCF-7, 20 μg/mL, 48 h), 43%.
Consider `COc1c(C)cc2c(c1C)C(C)CN2C(=O)C(C)C` (stereo not drawn) [Compound 13, N-Isobutyryl-5-methoxy-3,4,6-trimethylindoline], for which the inhibition at 0.1 µg/mL stood at 4% in series [1] and 0% in series [2] (48 h). Besides, the figures for the inhibition at 1 µg/mL in series [1] and in series [2] (48 h) were -4% and 10%, respectively. Further, the inhibition at 5 µg/mL was found to be 8% in series [1] (MB-435, 5 μg/mL) and 15% in series [2] (48 h). For the same compound, the inhibition at 10 µg/mL in series [1] (MB-435, 10 μg/mL) stood at 17%; in series [2] (HL-60, 10 μg/mL, 48 h), 27%. In addition, the inhibition at 20 µg/mL amounted to 45% in series [1] (MB-435, 20 μg/mL) and 53% in series [2] (HL-60, 20 μg/mL, 48 h). Besides, the “inhibition of proliferation (in words)” value in series [1] (MB-435, 20 μg/mL) is given as “inhibited the proliferation”; in series [2] (HL-60, 20 μg/mL) it was “inhibited the proliferation”.
Regarding `CC(=O)N1CC(C)(C)c2c1cc(C)c(O)c2C` [Compound 16, N-Acetyl-5-hydroxy-3,3,4,6-tetramethylindoline], the inhibition at 0.1 µg/mL in series [1] and in series [2] (48 h) was 0% throughout. Besides, the inhibition at 1 µg/mL in series [1] stood at 1%; in series [2] (48 h), 0%. Also, the inhibition at 5 µg/mL in series [1] (MB-435, 5 μg/mL) worked out at 9%; in series [2] (48 h), 11%. Besides, the inhibition at 10 µg/mL in series [1] (MB-435, 10 μg/mL) amounted to 18%; in series [2] (HL-60, 10 μg/mL, 48 h) it was 11%. Further, the inhibition at 20 µg/mL in series [1] (MB-435, 20 μg/mL) came out at 31%; in series [2] (HL-60, 20 μg/mL, 48 h) it was 15%. Further, the “inhibition of proliferation (in words)” value is “significantly inhibited the proliferation” in series [1] (MB-435, 5-20 μg/mL) and “significantly inhibited the proliferation” in series [2] (HL-60, 5-20 μg/mL).
With `Cc1cc2c(c(C)c1O)C(C)(C)CN2C(=O)C(C)(C)C` [Compound 20, N-Pivaloyl-5-hydroxy-3,3,4,6-tetramethylindoline], the inhibition at 0.1 µg/mL in series [1] is -1%; in series [2] (48 h), 2%. Besides, the inhibition at 1 µg/mL in series [1] is -5%; in series [2] (48 h) it was 6%. Also, the inhibition at 5 µg/mL in series [1] (MB-435, 5 μg/mL) was -1%; in series [2] (48 h) it was 18%. Also, the inhibition at 10 µg/mL in series [1] (MB-435, 10 μg/mL) is -13%; in series [2] (HL-60, 10 μg/mL, 48 h), 33%. The inhibition at 20 µg/mL in series [1] (MB-435, 20 μg/mL) is 31%; in series [2] (HL-60, 20 μg/mL, 48 h) it was 63%. For the same compound, the “inhibition of proliferation (in words)” value is given as “inhibited the proliferation” in series [1] (MB-435, 20 μg/mL) and “inhibited the proliferation” in series [2] (HL-60, 20 μg/mL).
